From patent publication US12178840B2, “Method and compositions comprising a CT20 peptide” (UNIVERSITY OF CENTRAL FLORIDA RESEARCH FOUNDATION, INC., priority 2014, dated 2024)
Residues, ends and D or L forms follow the SMILES beside them.

Key:
Type in all cases: cell-based, human
[1] = tested on: MDA-MB-231 cells; experiment: Timeline of biological effects of CT20 in HBPE-NPs in breast cancer cells; settings: CT20 (˜3.4 nM) in HBPE-NPs
Description: CT20 peptide impaired mitochondrial movement (mitotracker green) (A) leading to clustering (JC-1 probe) (B) and reduced F-actin (green) polymerization (nucleus, DAPI, blue (C). Referring to FIG. 3D, the viability of cells was determined by measuring membrane permeability (Sytox) and membrane asymmetry (violet ratiometric dye). Gates are: N, necrotic; V, viable; A, apoptotic. Percentages are V (black) and N+A (red). Referring to FIG. 3E, by 6 hours, cells detach from substrate (fibronectin). Referring to FIG. 3F, membrane levels of β1 integrin decrease. Referring to FIG. 3G-3I, post-cell detachment events include caspase activation, autophagy, and increased ROS production. Referring to FIG. 3J, apoptosis/anoikis was detected between 24-48 hours as described for 3D.
This triggered hyperpolarization of the mitochondrial membrane and fusion-like aggregation (FIG. 3B) that impaired mitochondrial redistribution, ATP production, and F-actin polymerization (FIG. 3C). Cells remained viable during these “initiating events” (FIG. 3D). However, at 6 hours post-CT20 treatment, cells began detaching from the substrate (fibronectin) (FIG. 3E). This was preceded by decreased expression of integrins (β1 integrin is shown; FIG. 3F). By 24 hours post-CT20 treatment, “effector events” caused by peptide-induced detachment were detected, including the activation of caspases (FIG. 3G), the induction of autophagy (FIG. 3H), and increased ROS production (FIG. 3I). Cell death (anoikis), indicated by membrane asymmetry, was detected in cancer cells by 48 hours (FIG. 3J).

[2] = tested on: BT-549 cells; experiment: Cellular adhesion assay (fibronectin, crystal violet); settings: 48 hours, varying doses
Description: (§1) Cellular adhesion assay: 96-well tissue culture plates were coated with 20 ug/mL fibronectin (Sigma) overnight at 4° C. Cells were then seeded in the plates at a density of 10,000 cells/well. Cells were treated with varying doses of CT20p for 48 hours. Plates were then shaken at 1400 rpm for 15 seconds, washed, and fixed with 10% neutral buffered formalin (Leica). Adhered cells were stained with 5 mg/mL crystal violet (Sigma) and absorbance at 595 nm was read on an EnVision plate reader (Perkin Elmer).
(§2) The effect of CT20p was examined on a panel of cell lines by measuring the impact on cellular adhesion. Metastatic cells vary their adhesion patterns as dictated by their environment (Cheung and Ewald 2014), and targeting adhesion ability could mitigate metastasis. To examine the cell lines, plates were coated with fibronectin to provide an appropriate substrate for adhesion, and cells were treated with CT20p for 48 hours at varying doses (FIG. 5A). […] Treating at this dose would allow us to observe the molecular effects of the peptide prior to cell death.

[3] = tested on: MCF-10A cells; experiment: as above
Description: as §1, §2

[4] = tested on: MDA-MB-231 cells; experiment: as above; settings: 48 hours, varying doses
Description: as §1, §2

[5] = tested on: MDA-MB-436 cells; experiment: as above; settings: 48 hours, varying doses
Description: as §1, §2

[6] = tested on: MDA-MB-436 cells; settings: 75 ug/mL, time course
Description: Measurement of cell viability: Cells at 60% confluency were treated with CT20p at a dose of 75 ug/mL for varying lengths of time. Following treatment, cells were collected and stained with Sytox AADvanced and F2N12S Violet Ratiometric Apoptosis kit (Invitrogen). Data was acquired by flow cytometry on a FACS Canto (BD Biosciences), and analyzed with FCSExpress software (DeNovo).
The cytotoxicity of CT20p to the cell lines was also assessed. To do this, cells were treated with the effective dose of CT20p in a time course-experiment, and membrane symmetry and permeability were examined by flow cytometry (FIG. 5B). […] BT-549 cells, on the other hand, were resistant to the effects of the peptide.

[7] = tested on: tubulin in MDA-MB-231 cells; experiment: Fixed cell immunofluorescence of tubulin; settings: 24 hours of CT20p treatment
Description: Fixed cell immunofluorescence: Cells were seeded on glass coverslips (Fisher) in a 6-well plate at a density of 150,000 cells/well. Cells at 60% confluency were treated with CT20p or left untreated for 24 hours. After CT20p treatment, cells were stained with Mitotracker Red CMXRos (Life Technologies) at a concentration of 200 nM for 30 minutes, before being fixed in ice cold methanol for 10 minutes at −20° C. Cells were then permeabilized in 0.1% Triton X-100 for 10 minutes at 37° C. Samples were blocked in 5% normal goat serum (Santa Cruz) for 30 minutes at 37° C., then incubated with primary antibody α-tubulin (DM1A) (Santa Cruz) for 3 hours at 37° C. Secondary antibody was goat α-mouse IgG-FITC (Santa Cruz) and was applied for 1 hour at room temperature. Coverslips were mounted in UltraCruz mounting media (Santa Cruz), which contains DAPI for nuclear staining. Images were obtained with a Zeiss LSM 710 microscope, using a Zeiss 63× Pan-Apocromat oil immersion lens and Zeiss Zen software. To determine average tubulin levels per cell, the amount of FITC fluorescence intensity per region of interest was divided by the number of cells in the field. At least four images containing between 5 and 12 cells were quantified for each condition. Image analysis was done using Volocity software (Perkin Elmer).
CT20p's effect on the other main client of CCT, tubulin, was also examined. […]

## CC[C@H](C)[C@H](NC(=O)[C@@H](NC(=O)[C@H](CC(C)C)NC(=O)[C@H](CO)NC(=O)[C@H](C)NC(=O)[C@@H](NC(=O)[C@H](CC(C)C)NC(=O)[C@@H](NC(=O)CNC(=O)[C@H](C)NC(=O)[C@@H](NC(=O)[C@H](Cc1ccccc1)NC(=O)[C@@H](NC(=O)[C@@H](NC(=O)[C@@H](NC(C)=O)C(C)C)[C@@H](C)O)[C@@H](C)CC)C(C)C)C(C)C)[C@@H](C)O)[C@@H](C)O)C(=O)N[C@@H](Cc1c[nH]c2ccccc12)C(=O)N[C@@H](CCCCN)C(=O)N[C@@H](CCCCN)C(=O)N[C@@H](CCSC)C(=O)NCC(N)=O [CT20] (Ac-VTIFVAGVLTASLTIWKKMG-NH2)
[1]
  Movement of mitochondria compared to controls: decreased four-fold
  Time by which cell death (anoikis, membrane asymmetry) was detected: ≤ 48 h
[1]; post-CT20 treatment
  Time at which cells began detaching from the substrate (fibronectin): 6 h
  Time by which effector events (caspase activation, autophagy, increased ROS) were detected: ≤ 24 h
[2]
  Effect on cellular adhesion: particularly unaffected
[3]; 75 μg/mL of CT20p
  Detachment of cells: does not cause detachment
[3]; 48 hours, varying doses, fibronectin
  Effect on cellular adhesion: particularly unaffected
[4]
  Effect on cellular adhesion: dose-dependent loss of adhesion
[5]
  Effect on cellular adhesion: dose-dependent loss of adhesion
[6]
  Earliest time at which characteristics of cell death were displayed: 6 h
[7]
  Amount of tubulin per cell: significant decrease
